Experimental data taken from US7173004B2, “Macrocyclic isoquinoline peptide inhibitors of hepatitis C virus” (Bristol-Myers Squibb Company, priority 2003, dated 2007).

Biological target: T1, HCV NS3/4A protease complex, BMS strain (genotype 1a) (UniProt P27958, C1454S/C1711G, species not given/STRAIN_BMS)
T1 construct: b1001: DNA encoding the recombinant HCV NS3/4A protease complex (amino acids 1027 to 1711) ... a three-lysine solubilizing tail was added at the 3′-end of the NS4A coding region; fused on or other part: Three-lysine solubilising tail at the C-terminus of NS4A; A His tag is implied by the pET21b vector and Ni-NTA purification
Experiment: Recombinant HCV NS3/4A protease complex FRET peptide assay, BMS strain
Assay type: biochemical
Text: Recombinant HCV NS3/4A Protease Complex FRET Peptide Assay
The purpose of this in vitro assay was to measure the inhibition of HCV NS3 protease complexes, derived from the BMS strain, H77C strain or J416S strain, as described below, by compounds of the present invention. This assay provides an indication of how effective compounds of the present invention would be in inhibiting HCV proteolytic activity.
Serum from an HCV-infected patient was obtained from Dr. T. Wright, San Francisco Hospital. An engineered full-length cDNA (compliment deoxyribonucleic acid) template of the HCV genome (BMS strain) was constructed from DNA fragments obtained by reverse transcription-PCR (RT-PCR) of serum RNA (ribonucleic acid) and using primers selected on the basis of homology between other genotype 1a strains. From the determination of the entire genome sequence, a genotype 1a was assigned to the HCV isolate according to the classification of Simmonds et al. (See P Simmonds, K A Rose, S Graham, S W Chan, F McOmish, B C Dow, E A Follett, P L Yap and H Marsden, J. Clin. Microbiol., 31(6), 1493–1503 (1993)). […] The infectious clones, H77C (1a genotype) and J4L6S (1b genotype) were obtained from R. Purcell (NIH) and the sequences are published in Genbank (AAB67036, see Yanagi, M., Purcell, R. H., Emerson, S. U. and Bukh, J. Proc. Natl. Acad. Sci. U.S.A. 94(16), 8738–8743 (1997); AF054247, see Yanagi, M., St Claire, M., Shapiro, M., Emerson, S. U., Purcell, R. H. and Bukh, J, Virology 244 (1), 161–172. (1998)).
The H77C and J4L6S strains were used for production of recombinant NS3/4A protease complexes. DNA encoding the recombinant HCV NS3/4A protease complex (amino acids 1027 to 1711) for these strains were manipulated as described by P. Gallinari et al. (see Gallinari P, Paolini C, Brennan D, Nardi C, Steinkuhler C, De Francesco R. Biochemistry. 38(17):5620–32, (1999)). Briefly, a three-lysine solubilizing tail was added at the 3′-end of the NS4A coding region. The cysteine in the P1 position of the NS4A-NS4B cleavage site (amino acid 1711) was changed to a glycine to avoid the proteolytic cleavage of the lysine tag. Furthermore, a cysteine to serine mutation was introduced by PCR at amino acid position 1454 to prevent the autolytic cleavage in the NS3 helicase domain. The variant DNA fragment was cloned in the pET21b bacterial expression vector (Novagen) and the NS3/4A complex was expressed in Escherichia coli strain BL21 (DE3) (Invitrogen) following the protocol described by P. Gallinari et al. (see Gallinari P, Brennan D, Nardi C, Brunetti M, Tomei L, Steinkuhler C, De Francesco R., J. Virol. 72(8):6758–69 (1998)) with modifications. Briefly, NS3/4A expression was induced with 0.5 mM Isopropyl β-D-1-thiogalactopyranoside (IPTG) for 22 hr at 20° C. A typical fermentation (10 L) yielded approximately 80 g of wet cell paste. The cells were resuspended in lysis buffer (10 mL/g) consisting of 25 mM N-(2-Hydroxyethyl)piperazine-N′-(2-Ethane Sulfonic acid) (HEPES), pH7.5, 20% glycerol, 500 mM Sodium Chloride (NaCl), 0.5% Triton-X100, 1 microgram/milliliter (“μg/mL”) lysozyme, 5 mM Magnesium Chloride (MgCl2), 1 ug/ml DnaseI, 5 mM β-Mercaptoethanol (βME), Protease inhibitor—Ethylenediamine Tetraacetic acid (EDTA) free (Roche), homogenized and incubated for 20 mins at 4° C. The homogenate was sonicated and clarified by ultra-centrifugation at 235000 g for 1 hr at 4° C. Imidazole was added to the supernatant to a final concentration of 15 mM and the pH adjusted to 8.0. The crude protein extract was loaded on a Nickel-Nitrilotriacetic acid (Ni-NTA) column pre-equilibrated with buffer B (25 mM HEPES, pH8.0, 20% glycerol, 500 mM NaCl, 0.5% Triton-X100, 15 mM imidazole, 5 mM βME). The sample was loaded at a flow rate of 1 mL/min. The column was washed with 15 column volumes of buffer C (same as buffer B except with 0.2% Triton-X100). The protein was eluted with 5 column volumes of buffer D (same as buffer C except with 200 mM Imidazole). […]

[1] = NS3/4A BMS strain, activity range symbols
[2] = NS3/4A BMS Strain, activity range classes

SMILES	IC50 [1] [nM]	IC50 [2] [nM]
CC(C)(C)OC(=O)N[C@H]1CCCCC/C=C\[C@@H]2C[C@@]2(C(=O)NS(=O)(=O)C2(C)CC2)NC(=O)[C@@H]2C[C@@H](Oc3nccc4ccccc34)CN2C1=O [Compound 8, [18-(Isoquinolin-1-yloxy)-4-(1-methyl-cyclopropanesulfonylaminocarbonyl)-2,15-dioxo-3,16-diaza-tricyclo[14.3.0.0^4,6]nonadec-7-en-14-yl]-carbamic acid tert-butyl ester]	< 50	–
COc1ccc2c(OC3CC4C(=O)NC5(C(=O)NS(=O)(=O)C6CC6)CC5C=CCOCCCC(NC(=O)OCC(C)(C)C)C(=O)N4C3)nccc2c1 (stereo not drawn) [Compound 32]	< 50	–
COc1ccc2c(OC3CC4C(=O)NC5(C(=O)NS(=O)(=O)C6CC6)CC5C=CCOCCCC(NC(=O)OC(C)(C)C)C(=O)N4C3)nccc2c1 (stereo not drawn) [Compound 28, [4-Cyclopropanesulfonylaminocarbonyl-18-(6-methoxy-isoquinolin-1-yloxy)-2,15-dioxo-10-oxa-3,16-diaza-tricyclo[14.3.0.0^4,6]nonadec-7-en-14-yl]-carbamic acid tert-butyl ester]	< 50	–
COc1ccc2c(OC3CC4C(=O)NC5(C(=O)NS(=O)(=O)C6(C)CC6)CC5C=CCCCCCC(NC(=O)OC(C)(C)C)C(=O)N4C3)nccc2c1 (stereo not drawn) [Compound 53]	< 50	–
CC(C)OC(=O)N[C@H]1CCCCC/C=C\[C@@H]2C[C@@]2(C(=O)NS(=O)(=O)C2CC2)NC(=O)[C@@H]2C[C@@H](Oc3nccc4ccccc34)CN2C1=O [Compound 16, [4-Cyclopropanesulfonylaminocarbonyl-18-(isoquinolin-1-yloxy)-2,15-dioxo-3,16-diaza-tricyclo[14.3.0.0^4,6]nonadec-7-en-14-yl]-carbamic acid isopropyl ester]	< 50	–
CC(C)(OC(=O)NC1CCCCCC=CC2CC2(C(=O)NS(=O)(=O)C2CC2)NC(=O)C2CC(Oc3nccc4ccccc34)CN2C1=O)C(F)(F)F (stereo not drawn) [Compound 51]	< 50	–
COc1ccc2c(OC3CC4C(=O)NC5(C(=O)NS(=O)(=O)C6CC6)CC5C=CCCCOC(C)C(NC(=O)OC(C)C)C(=O)N4C3)nccc2c1 (stereo not drawn) [Compound 64]	< 50	–
O=C(CC1CC1)NC1CCCCCC=CC2CC2(C(=O)NS(=O)(=O)C2CC2)NC(=O)C2CC(Oc3nccc4ccccc34)CN2C1=O (stereo not drawn) [Compound 22]	< 50	–
CCC1(S(=O)(=O)NC(=O)C23CC2C=CCCCOC(C)C(NC(=O)OCC(C)(C)C)C(=O)N2CC(Oc4nccc5cc(OC)ccc45)CC2C(=O)N3)CC1 (stereo not drawn) [Compound 71]	< 50	–
COc1ccc2c(OC3CC4C(=O)NC5(C(=O)NS(=O)(=O)C6(C)CC6)CC5C=CCCCS(=O)(=O)CC(NC(=O)OC(C)(C)C)C(=O)N4C3)nccc2c1 (stereo not drawn) [Compound 49]	50 to 500	–
COc1ccc2c(OC3CC4C(=O)NC5(C(=O)NS(=O)(=O)C6(C)CC6)CC5C=CCOCCCC(NC(=O)OC(C)C)C(=O)N4C3)nccc2c1 (stereo not drawn) [Compound 35]	< 50	–
COc1ccc2c(O[C@@H]3C[C@H]4C(=O)N[C@]5(C(=O)O)C[C@H]5/C=C\CCCOC[C@H](NC(=O)OC(C)(C)C)C(=O)N4C3)nccc2c1 [Compound 84, (1S,4R,6S,14S,18R)-7-cis-14-tert-Butoxycarbonylamino-18-(6-methoxyisoquinolin-1-yloxy)-2,15-dioxo-12-oxa-3,16-diazatricyclo[14.3.0.0^4,6]-nonadec-7-ene-4-carboxylic acid]	–	50 to 500
COc1ccc2c(OC3CC4C(=O)NC5(C(=O)O)CC5C=CCOCCCC(NC(=O)OC(C)(C)C)C(=O)N4C3)nccc2c1 (stereo not drawn) [Compound 27, 14-tert-Butoxycarbonylamino-18-(6-methoxy-isoquinolin-1-yloxy)-2,15-dioxo-10-oxa-3,16-diaza-tricyclo[14.3.0.0^4,6]nonadec-7-ene-4-carboxylic acid]	–	50 to 500
COC(=O)N[C@H]1CCCCC/C=C\[C@@H]2C[C@@]2(C(=O)NS(=O)(=O)C2CC2)NC(=O)[C@@H]2C[C@@H](Oc3nccc4ccccc34)CN2C1=O [Compound 12, [4-Cyclopropanesulfonylaminocarbonyl-18-(isoquinolin-1-yloxy)-2,15-dioxo-3,16-diaza-tricyclo[14.3.0.0^4,6]nonadec-7-en-14-yl]-carbamic acid methyl ester]	< 50	–
CCC1(S(=O)(=O)NC(=O)C23CC2C=CCOCCCC(NC(=O)OC(C)(C)C)C(=O)N2CC(Oc4nccc5cc(OC)ccc45)CC2C(=O)N3)CC1 (stereo not drawn) [Compound 30]	< 50	–
CCC1(S(=O)(=O)NC(=O)C23CC2C=CCCC[S+]([O-])CC(NC(=O)OC(C)(C)C)C(=O)N2CC(Oc4nccc5cc(OC)ccc45)CC2C(=O)N3)CC1 (stereo not drawn) [Compound 47]	< 50	–
COCC(=O)NC1CCCCCC=CC2CC2(C(=O)NS(=O)(=O)C2CC2)NC(=O)C2CC(Oc3nccc4ccccc34)CN2C1=O (stereo not drawn) [Compound 24]	< 50	–
O=C(NC1CCCCCC=CC2CC2(C(=O)NS(=O)(=O)C2CC2)NC(=O)C2CC(Oc3nccc4ccccc34)CN2C1=O)OC1CCCC1 (stereo not drawn) [Compound 20]	< 50	–
CC(C)(C)COC(=O)N[C@H]1CCCCC/C=C\[C@@H]2C[C@@]2(C(=O)NS(=O)(=O)C2CC2)NC(=O)[C@@H]2C[C@@H](Oc3nccc4ccccc34)CN2C1=O [Compound 13, [4-Cyclopropanesulfonylaminocarbonyl-18-(isoquinolin-1-yloxy)-2,15-dioxo-3,16-diaza-tricyclo[14.3.0.0^4,6]nonadec-7-en-14-yl]-carbamic acid 2,2-dimethyl-propyl ester]	< 50	–
COc1ccc2c(O[C@@H]3C[C@H]4C(=O)N[C@]5(C(=O)NS(=O)(=O)C6CC6)C[C@H]5/C=C\CCCCC[C@H](NC(=O)OC(C)(C)C)C(=O)N4C3)nccc2c1 [Compound 17B, [4-Cyclopropanesulfonylaminocarbonyl-18-(6-methoxy-isoquinolin-1-yloxy)-2,15-dioxo-3,16-diaza-tricyclo[14.3.0.0^4,6]nonadec-7-en-14-yl]-carbamic acid tert-butyl ester]	< 50	–
COc1ccc2c(OC3CC4C(=O)NC5(C(=O)NS(=O)(=O)C6(C)CC6)CC5C=CCCCSCC(NC(=O)OC(C)C)C(=O)N4C3)nccc2c1 (stereo not drawn) [Compound 41]	< 50	–
COc1ccc2c(OC3CC4C(=O)NC5(C(=O)NS(=O)(=O)C6CC6)CC5C=CCOCCCC(NC(=O)OC(C)C)C(=O)N4C3)nccc2c1 (stereo not drawn) [Compound 31]	< 50	–
CC(C)(C)OC(=O)N[C@H]1CCCCC/C=C\[C@@H]2C[C@@]2(C(=O)NS(=O)(=O)C2CC2)NC(=O)[C@@H]2C[C@@H](Oc3nccc4ccccc34)CN2C1=O [Compound 4, [4-Cyclopropanesulfonylaminocarbonyl-18-(isoquinolin-1-yloxy)-2,15-dioxo-3,16-diaza-tricyclo[14.3.0.0^4,6]nonadec-7-en-14-yl]-carbamic acid tert-butyl ester]	< 50	–
CC1(OC(=O)NC2CCCCCC=CC3CC3(C(=O)NS(=O)(=O)C3CC3)NC(=O)C3CC(Oc4nccc5ccccc45)CN3C2=O)CC1 (stereo not drawn) [Compound 59]	< 50	–
